Measurements: US9695132B2, “Heteroaryl compounds and uses thereof” (Celgene CAR LLC, priority 2013, dated 2017)
pEC50, pIC50: −log10 of the molar value. Read-outs that look alike come from different tables or passages of the source.

What was measured:
pFGFR4 in Huh7 cells = pFGFR4 in Huh7 cells (Homo sapiens (Human), UniProt P22455); test: FGFR4 signaling, Meso Scale assay (MSD), Method B, Huh7
Experimental: Huh7 cells were grown in DMEM (Invitrogen, Carlsbad, Calif.) supplemented with 10% FBS (Invitrogen) and 1% Penicillin-Streptomycin (P/S, Lonza, Walkersville, Md.).
For the MSD and ELISA assays, total FGFR4 antibodies were obtained from R&D Systems (Minneapolis, Minn.) and used at 1:500. […] Phospho-FGFR antibodies were obtained from Cell Signaling (Danvers, Mass.) or R&D Systems and used at 1:1000. The phopho-FGFR antibody from Cell Signaling was used for immunoblotting, whereas the phopho-FGFR antibody from R&D was used for MSD and ELISA assays. Secondary antibodies were used at 1:10,000. The goat anti-mouse IgG IRDye 800CW antibody was obtained from LiCor Biosciences (Lincoln, Nebr.) and the goat anti-rabbit IgG Alexa Fluor 680 was obtained from Invitrogen. The anti-rabbit Sulfo-tag and anti-streptavidin Sulfo-tag antibodies was obtained from Meso Scale Discovery (Gaithersburg, Md.), and were used at 1:1000 and 1:5000, respectively.
After treatment, the cells were washed with cold PBS (Invitrogen), and were immediately lysed by freeze/thawing 3× in 32 μL of cold Cell Extraction Buffer (Invitrogen), which was supplemented with Complete Protease inhibitors (Roche) and PhosphoSTOP (Roche) phosphatase inhibitors.
MSD plates (Meso Scale Discovery) were coated with total FGFR-4 antibodies overnight at 4° C. A lysate (25 μL) was added to the MSD plate overnight at 4° C. The MSD signals were obtained by incubating with a phospho-FGFR antibody (R&D Systems) and an anti-rabbit sulfo-tag antibody (Meso Scale), for 2 hr at room temperature. […] The data was fitted using a sigmoidal curve analysis program (Graph Pad Prism version 5) with variable Hill slope to determine the EC50 values.

FGFR4-WT = FGFR4-WT (Homo sapiens (Human), UniProt P22455); test: Omnia assay for potency assessment against FGFR4 enzyme; assay type: biochemical
Sequence of FGFR4-WT (P22455 22-802): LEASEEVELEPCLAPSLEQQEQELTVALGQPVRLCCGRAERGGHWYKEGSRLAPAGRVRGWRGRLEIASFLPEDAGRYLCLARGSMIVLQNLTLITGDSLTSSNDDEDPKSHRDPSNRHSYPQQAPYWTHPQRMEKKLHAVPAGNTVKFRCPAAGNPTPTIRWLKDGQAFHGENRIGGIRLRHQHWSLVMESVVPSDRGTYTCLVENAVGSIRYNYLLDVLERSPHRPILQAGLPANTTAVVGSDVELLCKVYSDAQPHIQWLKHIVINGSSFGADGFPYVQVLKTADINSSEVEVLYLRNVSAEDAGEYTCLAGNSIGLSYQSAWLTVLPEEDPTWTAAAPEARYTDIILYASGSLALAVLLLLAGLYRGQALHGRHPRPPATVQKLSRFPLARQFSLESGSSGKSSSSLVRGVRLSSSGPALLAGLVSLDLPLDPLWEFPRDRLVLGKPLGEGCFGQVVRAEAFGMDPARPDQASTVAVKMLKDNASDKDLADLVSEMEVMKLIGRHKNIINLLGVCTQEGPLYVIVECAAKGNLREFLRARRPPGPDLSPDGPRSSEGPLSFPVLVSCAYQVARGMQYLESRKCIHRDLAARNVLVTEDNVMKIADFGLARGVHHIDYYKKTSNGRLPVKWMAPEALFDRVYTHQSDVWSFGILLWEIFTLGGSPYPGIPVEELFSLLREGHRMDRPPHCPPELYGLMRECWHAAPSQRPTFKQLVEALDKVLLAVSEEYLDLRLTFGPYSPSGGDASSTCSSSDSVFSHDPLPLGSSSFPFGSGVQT
Experimental: A 10× stock solution of FGFR4-WT (PR4380C), (from Invitrogen, Carlsbad, Calif.) corresponding to method a in Table 7, was prepared as described below. Alternatively, a 10× stock solution of FGFR4-WT (F01-11G), (SignalChem, Richmond, BC) corresponding to method b in Table 7, was prepared as described below. A solution of 1.4×ATP (AS001A) and 5× Tyr-Sox conjugated peptide substrate (KNZ3101) were prepared in 1× kinase reaction buffer consisting of 20 mM Tris, pH 7.5, 5 mM MgCl2, 1 mM EGTA, 5 mM β-glycerophosphate, 5% glycerol (10× stock, KB002A) and 0.2 mM DTT (DS001A). […] The serially diluted compounds were prepared on a Tecan EVO100. A second addition of 10 μl of Tyr-Sox FGFR4 substrate was added to each well and the kinase reactions were started with the addition of 35 μL of 1.4×ATP. The reactions were monitored every 71 seconds for 240 minutes at λex360/λem485 in a Synergy plate reader from BioTek (Winooski, Vt.).

[1] = method a: [FGFR4-WT]=10 nM (Invitrogen), [ATP]=300 uM, [Y10-Sox]=10 uM

Sequence of pFGFR4 in Huh7 cells (P22455 22-802): as above

| SMILES | pEC50 (pFGFR4 in Huh7 cells) | pIC50 (FGFR4-WT; [1]) | pIC50 (FGFR4-WT) |
| --- | --- | --- | --- |
| C=CC(=O)Nc1nn(C)cc1Nc1ncc2c(n1)N(C)C(=O)N(c1c(Cl)c(OC)cc(OC)c1Cl)C2 [Compound I-117] | > 7.00 | > 7.00 |  |
| C=CC(=O)Nc1ccccc1Nc1ncc2c(n1)N(Cc1cn[nH]c1)C(=O)N(c1cc(OC)cc(OC)c1)C2 [Compound I-121] | > 7.00 | > 7.00 |  |
| C=CC(=O)Nc1ccccc1Nc1ncc2c(n1)N(Cc1cn[nH]c1)C(=O)N(c1c(Cl)c(OC)cc(OC)c1Cl)C2 [Compound I-124] | > 7.00 | > 7.00 |  |
| C=CC(=O)Nc1ccccc1Nc1ncc2c(n1)NC(=O)N(c1cc(OC)cc(OC)c1)C2 [Compound I-125] | < 6.00 | 6.30 to 7.00 |  |
| C=CC(=O)NC1COCC1Nc1ncc2c(n1)N(C)C(=O)N(c1c(Cl)c(OC)cc(OC)c1Cl)C2 (centres unmarked) [Compound I-126] | > 7.00 | > 7.00 |  |
| C=CC(=O)Nc1cc(N2CCN(C(=O)CCCC(=O)NCCCOCCOCCOCCCNC(=O)CCCC[C@@H]3SC[C@@H]4NC(=O)N[C@@H]43)CC2)ccc1Nc1ncc2c(n1)N(C)C(=O)N(c1c(Cl)c(OC)cc(OC)c1Cl)C2 [Compound I-127] | 6.30 to 7.00 |  | > 7.00 |
| C=CC(=O)Nc1ccccc1Nc1ncc2c(n1)N(C)C(=O)N(c1c(F)c(OC)cc(OC)c1F)C2 [Compound I-131] | > 7.00 | > 7.00 |  |
| C=CC(=O)NC1CCCCC1Nc1ncc2c(n1)N(Cc1ccn(C)c(=O)c1)C(=O)N(c1c(Cl)c(OC)cc(OC)c1Cl)C2 (centres unmarked) [Compound I-132] | 6.30 to 7.00 | > 7.00 |  |
| C=CC(=O)NC1CCCCC1Nc1ncc2c(n1)N(Cc1ccnc(N)c1)C(=O)N(c1c(Cl)c(OC)cc(OC)c1Cl)C2 (centres unmarked) [Compound I-133] | > 7.00 | > 7.00 |  |
| C=CC(=O)NC1CCCCC1Nc1ncc2c(n1)N(Cc1csc(C)n1)C(=O)N(c1c(Cl)c(OC)cc(OC)c1Cl)C2 (centres unmarked) [Compound I-137] | 6.30 to 7.00 | > 7.00 |  |
| C=CC(=O)N[C@H]1COCC[C@H]1Nc1ncc2c(n1)N(C)C(=O)N(c1c(Cl)c(OC)cc(OC)c1Cl)C2 [Compound I-140] | 6.30 to 7.00 | 6.30 to 7.00 |  |
| C=CC(=O)N[C@H]1CCCC[C@H]1Nc1ncc2c(n1)N(C)C(=O)N(c1c(F)c(OC)cc(OC)c1F)C2 [Compound I-143] | 6.30 to 7.00 | > 7.00 |  |
| C=CC(=O)Nc1cc(-c2nnn(C)n2)ccc1Nc1ncc2c(n1)N(C)C(=O)N(c1cc(OC)cc(OC)c1)C2 [Compound I-146] | 6.30 to 7.00 | > 7.00 |  |
| C=CC(=O)Nc1cc(C(=O)NC2CCN(C)CC2)ccc1Nc1ncc2c(n1)N(C)C(=O)N(c1cc(OC)cc(OC)c1)C2 [Compound I-151] | < 6.00 | > 7.00 |  |
| C=CC(=O)Nc1cc(-c2nnnn2C)ccc1Nc1ncc2c(n1)N(C)C(=O)N(c1c(Cl)c(OC)cc(OC)c1Cl)C2 [Compound I-153] | > 7.00 | > 7.00 |  |
| C=CC(=O)N[C@@H]1COC[C@@H]1Nc1ncc2c(n1)N(C)C(=O)N(c1c(Cl)c(OC)cc(OC)c1Cl)C2 [Compound I-185] | < 6.00 | < 6.00 |  |
| C=CC(=O)N[C@H]1COC[C@H]1Nc1ncc2c(n1)N(C)C(=O)N(c1c(Cl)c(OC)cc(OC)c1Cl)C2 [Compound I-186] | > 7.00 | > 7.00 |  |
| C=CC(=O)NC1COCC1Nc1ncc2c(n1)N(C)C(=O)N(c1c(F)c(OC)cc(OC)c1F)C2 (centres unmarked) [Compound I-198] | > 7.00 | > 7.00 |  |
| C=CC(=O)NC1CS(=O)(=O)CC1Nc1ncc2c(n1)N(C)C(=O)N(c1c(Cl)c(OC)cc(OC)c1Cl)C2 (centres unmarked) [Compound I-200] | 6.30 to 7.00 | > 7.00 |  |
| C=CC(=O)NC1CN(c2ccncn2)CC1Nc1ncc2c(n1)N(C)C(=O)N(c1c(Cl)c(OC)cc(OC)c1Cl)C2 (centres unmarked) [Compound I-201] | 6.30 to 7.00 | > 7.00 |  |

| SMILES | pEC50 (pFGFR4 in Huh7 cells) | pIC50 (FGFR4-WT; [1]) | pIC50 (FGFR4-WT) |
| --- | --- | --- | --- |
| C=CC(=O)NC1CN(c2ccn(C)n2)CC1Nc1ncc2c(n1)N(C)C(=O)N(c1c(Cl)c(OC)cc(OC)c1Cl)C2 (centres unmarked) [Compound I-204] | > 7.00 | > 7.00 |  |
| C=CC(=O)NC1COCC1Nc1ncc2c(n1)N(C)C(=O)N(c1c(Cl)c(OCC)cc(OCC)c1Cl)C2 (centres unmarked) [Compound I-205] | 6.30 to 7.00 | 6.30 to 7.00 |  |
| C=CC(=O)NC1COCC1Nc1ncc2c(n1)N(C)C(=O)N(c1c(F)c(OC)cc(OC)c1Cl)C2 (centres unmarked) [Compound I-206] | > 7.00 | > 7.00 |  |
| C=CC(=O)NC1COCC1Nc1ncc2c(n1)N(C)C(=O)N(c1cc(OC)c(OC)c(OC)c1)C2 (centres unmarked) [Compound I-207] | < 6.00 | < 6.00 |  |
| C=CC(=O)NC1COCC1Nc1ncc2c(n1)N(C)C(=O)N(c1c(Cl)c(OC)c(OC)c(OC)c1Cl)C2 (centres unmarked) [Compound I-208] | < 6.00 | 6.00 to 6.30 |  |
| C=CC(=O)NC1COCC1Nc1ncc2c(n1)N(C)C(=O)N(c1ccc(OC)cc1)C2 (centres unmarked) [Compound I-209] | < 6.00 | < 6.00 |  |
| C=CC(=O)NC1COCC1Nc1ncc2c(n1)N(Cc1cnn(C)c1)C(=O)N(c1c(Cl)c(OC)cc(OC)c1Cl)C2 (centres unmarked) [Compound I-213] | > 7.00 | > 7.00 |  |
| C=CC(=O)NC1COCC1Nc1ncc2c(n1)N(Cc1ccn(C)n1)C(=O)N(c1c(Cl)c(OC)cc(OC)c1Cl)C2 (centres unmarked) [Compound I-215] | > 7.00 | > 7.00 |  |
| C=CC(=O)NC1COCC1Nc1ncc2c(n1)N(Cc1cc[nH]n1)C(=O)N(c1c(Cl)c(OC)cc(OC)c1Cl)C2 (centres unmarked) [Compound I-216] | 6.30 to 7.00 | > 7.00 |  |
| C=CC(=O)NC1COCC1Nc1ncc2c(n1)N(CC)C(=O)N(c1c(Cl)c(OC)cc(OC)c1Cl)C2 (centres unmarked) [Compound I-217] | > 7.00 | > 7.00 |  |
| C=CC(=O)N(C)C1COCC1Nc1ncc2c(n1)N(C)C(=O)N(c1c(Cl)c(OC)cc(OC)c1Cl)C2 (centres unmarked) [Compound I-218] | < 6.00 | < 6.00 |  |
| C=CC(=O)N[C@H]1CCCC[C@H]1Nc1ncc2c(n1)N(C)C(=O)N(c1c(Cl)c(OCC)cc(OCC)c1Cl)C2 [Compound I-219] | 6.00 to 6.30 | 6.30 to 7.00 |  |
| C=CC(=O)N[C@H]1CCCC[C@H]1Nc1ncc2c(n1)N(C)C(=O)N(c1cc(OC)c(OC)c(OC)c1)C2 [Compound I-220] | < 6.00 | < 6.00 |  |
| C=CC(=O)N[C@H]1CCCC[C@H]1Nc1ncc2cc(-c3c(Cl)c(OC)cc(OC)c3Cl)c(=O)n(C)c2n1 [Compound I-223] | > 7.00 |  | > 7.00 |
| C=CC(=O)N[C@H]1CCCC[C@H]1Nc1ncc2c(n1)N(C)C(=O)N(c1c(F)c(OC)cc(OC)c1Br)C2 [Compound I-228] | 6.30 to 7.00 | 6.30 to 7.00 |  |
| C=CC(=O)Nc1cc(C)ccc1Nc1ncc2cc(-c3c(Cl)c(OC)cc(OC)c3Cl)c(=O)n(C)c2n1 [Compound I-243] | > 7.00 | > 7.00 |  |
| C=CC(=O)Nc1ccccc1Nc1ncc2cc(-c3c(Cl)c(OC)cc(OC)c3Cl)c(=O)n(C)c2n1 [Compound I-244] | > 7.00 | > 7.00 |  |
| C=CC(=O)Nc1cc(F)ccc1Nc1ncc2cc(-c3c(Cl)c(OC)cc(OC)c3Cl)c(=O)n(C)c2n1 [Compound I-245] | > 7.00 | > 7.00 |  |
| C=CC(=O)NC1COCC1Nc1ncc2c(n1)N(C)C(=O)N(c1cc(C(=O)Nc3cccc(C(C)(C)C#N)c3)ccc1Cl)C2 (centres unmarked) [Compound I-246] | 6.30 to 7.00 | 6.30 to 7.00 |  |
| C=CC(=O)NC1COCC1Nc1ncc2c(n1)N(C)C(=O)N(c1cc(C(=O)Nc3cccc(C(C)(C)C)c3)ccc1Cl)C2 (centres unmarked) [Compound I-247] | > 7.00 | 6.30 to 7.00 |  |
